Reference: patent US12090146B2, “Substituted-pyridinyl compounds and uses thereof” (Bionomics Limited, priority 2018, dated 2024)

Key:
[1] = biological target: T1, hKv3.1 (Homo sapiens, UniProt P48547); experiment: Automated patch clamp (Patchliner) whole-cell electrophysiology, Kv3.1; format: cell-based; conditions: 10 μM compound, CHO-K1 cells stably expressing hKv3.1; for Kv3.1 Activity at 10 μM Potentiation (%): % potentiation of peak current at −10 mV voltage step vs vehicle; for Kv3.1 Activity at 10 μM Voltage Shift (mV): voltage shift of the IV curve at V1/2
T1 construct: expressed in transfected cells
T1 sequence (P48547 1-511): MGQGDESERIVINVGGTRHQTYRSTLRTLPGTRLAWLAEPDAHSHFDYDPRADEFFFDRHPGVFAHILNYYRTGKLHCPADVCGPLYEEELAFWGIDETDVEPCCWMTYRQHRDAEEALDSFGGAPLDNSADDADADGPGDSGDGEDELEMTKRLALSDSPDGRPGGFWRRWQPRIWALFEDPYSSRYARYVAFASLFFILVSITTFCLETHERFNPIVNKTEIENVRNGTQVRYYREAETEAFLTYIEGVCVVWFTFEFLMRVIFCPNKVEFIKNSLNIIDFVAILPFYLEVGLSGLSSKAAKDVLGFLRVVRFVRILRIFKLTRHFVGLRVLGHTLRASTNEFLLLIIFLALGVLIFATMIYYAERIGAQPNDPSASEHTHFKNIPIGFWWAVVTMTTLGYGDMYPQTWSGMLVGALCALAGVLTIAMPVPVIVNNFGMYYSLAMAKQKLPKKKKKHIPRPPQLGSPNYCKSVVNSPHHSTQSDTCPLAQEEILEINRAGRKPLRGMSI
Protocol: (§1) hKv3.1, hKv3.2, hKv3.3, and hKv3.4 were stably expressed in CHO-K1 (Chinese hamster ovary) cells and kept under constant antibiotic selection. For in vitro assays, cells were maintained in appropriate growth medium at 37° C. and 5% CO2 in a humidified incubator.
(§2) hKv3.X expressing cells were plated in T-25 flasks for 3-4 days at 37° C. (no selection antibiotic) prior to use and grown to 80% confluence. Cells were washed twice with PBS (calcium and magnesium free) and detached with a 5-minute treatment at 37° C. with 2-3 mls of Accutase®. Cells were collected, and flask was washed in CHO-SFM II media (Life Technologies Gibco), centrifuged for 2 minutes at ˜110×g and resuspended to obtain a single cell suspension of ˜2-3×10^6 cells/ml.
(§3) The intracellular solution contained the following (in mM): KCl 50, NaCl 10, KF 60, EGTA 20, HEPES 10, adjusted to pH 7.2 with KOH and an osmolarity of 285 mOsmol. Seal enhancer was purchased from Nanion (80 mM NaCl, 3 mM KCl, 10 mM MgCl2, 35 mM CaCl2), 10 mM HEPES, pH7.4, 298 mOsmol. The external solution contained (in mM): NaCl 140, KCl 4, CaCl2) 2, MgCl2 1, HEPES 10, Glucose 5, adjusted to pH7.4 and an osmolarity of 298 mOsmol.
(§4) All compounds were initially tested at 10 uM at a final DMSO concentration of 0.33%. Compounds were dissolved in dimethylsulfoxide (DMSO) at a stock concentration of 30 mM. The compound was further diluted 1:10 to give a stock concentration of 3 mM in DMSO. The final assay solution was diluted 1:300 in External solution to give a final concentration of 10 uM. For the DMSO Control Buffer 30 uL of DMSO was added to 10 mL buffer.
(§5) All electrophysiological recordings were performed at ambient temperature (21-23° C.) using automated patch clamp (Patchliner, Nanion Technologies GmbH) in the whole-cell configuration.
(§6) Cell membrane potentials were held at −80 mV, and currents were evoked by voltage steps (1000 ms duration) from −60 to +60 mV in 10 mV increments. This was performed first with vehicle (0.33% DMSO) and then with 10 uM compound, after a 3-minute incubation period. Data was taken from 4 cells per assay.
(§7) The recordings were analysed and selected using peak current amplitude (>100 pA at the −10 mV voltage step) in the absence of compound to eliminate unsuitable cells from analysis. Peak current amplitude was measured and recorded for each voltage step and data was normalised to the maximum current at +60 mV. The normalised Kv3.x currents following addition of the compound were then compared with the currents recorded prior to compound addition (vehicle control). Positive modulation was determined as % potentiation at the voltage step of −10 mV=[current (cmpd)/current (veh)]*100−100. % potentiation ≥50% was considered acceptable. In addition, voltage shift of the IV curve at V1/2 was measured. V1/2 of ≥−5 mV was also considered acceptable. IV curves were plotted in GraphPad Prism (software version 6.0) and fitted with a Boltzmann equation, where V1/2 is the voltage at half-maximal activation.

[2] = biological target: T2, hKv3.2 (Homo sapiens, UniProt Q96PR1); experiment: Automated patch clamp (Patchliner) whole-cell electrophysiology, Kv3.2; format: cell-based; conditions: 10 μM compound, CHO-K1 cells stably expressing hKv3.2; for activation at 10 µM: % potentiation of peak current at −10 mV voltage step vs vehicle; for Kv3.2 Activity at 10 μM Voltage Shift (mV): voltage shift of the IV curve at V1/2
T2 construct: expressed in transfected cells
T2 sequence (Q96PR1 1-638): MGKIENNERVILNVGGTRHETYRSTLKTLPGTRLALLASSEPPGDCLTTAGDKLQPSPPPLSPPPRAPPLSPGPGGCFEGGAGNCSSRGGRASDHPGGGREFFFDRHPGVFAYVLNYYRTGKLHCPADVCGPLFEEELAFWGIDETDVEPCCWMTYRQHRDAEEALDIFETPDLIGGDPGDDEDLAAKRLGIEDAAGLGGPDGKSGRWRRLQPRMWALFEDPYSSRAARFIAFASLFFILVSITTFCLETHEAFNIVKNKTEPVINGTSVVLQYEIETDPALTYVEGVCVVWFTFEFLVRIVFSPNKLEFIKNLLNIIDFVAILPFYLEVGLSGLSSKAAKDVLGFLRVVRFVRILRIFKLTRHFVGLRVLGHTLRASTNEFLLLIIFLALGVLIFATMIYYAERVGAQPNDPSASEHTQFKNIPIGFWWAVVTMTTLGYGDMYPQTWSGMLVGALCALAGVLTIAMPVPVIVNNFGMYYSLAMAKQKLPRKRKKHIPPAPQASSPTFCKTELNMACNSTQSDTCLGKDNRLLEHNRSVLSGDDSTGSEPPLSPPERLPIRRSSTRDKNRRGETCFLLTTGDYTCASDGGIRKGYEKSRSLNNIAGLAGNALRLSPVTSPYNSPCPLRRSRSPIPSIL
Protocol: as §1, §2, §3, §4, §5, §6, §7

Kv3.1 Activity at 10 μM Potentiation (%) [1] | Kv3.1 Activity at 10 μM Voltage Shift (mV) [1] | activation at 10 µM [2] | Kv3.2 Activity at 10 μM Voltage Shift (mV) [2] | SMILES
30% | −2.27 mV | 14% | −1.69 mV | CC1(C)NC(=O)N(c2ccc(F)c(Oc3ccc4c(c3)OC(F)(F)O4)n2)C1=O [Example 84, 3-[6-[(2,2-difluoro-1,3-benzodioxol-5-yl)oxy]-5-fluoro-2-pyridyl]-5,5-dimethyl-imidazolidine-2,4-dione]
32% | −4.09 mV | 22% | −2.39 mV | COc1cc(Oc2cc(N3C(=O)NC(C)(C)C3=O)ccn2)ccc1Cl [Example 8, 3-[2-(4-chloro-3-methoxy-phenoxy)-4-pyridyl]-5,5-dimethyl-imidazolidine-2,4-dione]
80% | −6.49 mV | 30% | −3.92 mV | CC1(C)NC(=O)N(c2ccnc(Oc3ccc4c(c3)OC(F)(F)O4)c2)C1=O [Example 9, 3-[2-[(2,2-difluoro-1,3-benzodioxol-5-yl)oxy]-4-pyridyl]-5,5-dimethyl-imidazolidine-2,4-dione]
85% | −6.21 mV | 43% | −4.8 mV | O=C1NC2(CCCC2)C(=O)N1c1ccnc(Oc2ccc3c(c2)OC(F)(F)O3)c1 [Example 36, 3-[2-[(2,2-difluoro-1,3-benzodioxol-5-yl)oxy]-4-pyridyl]-1,3-diazaspiro[4.4]nonane-2,4-dione]
19% | −2.36 mV | 61% | −6.69 mV | CC[C@@]1(C)NC(=O)N(c2cc(Oc3ccc(C)c(OC)c3)ccn2)C1=O [Example 45, (5R)-5-ethyl-3-[4-(3-methoxy-4-methyl-phenoxy)-2-pyridyl]-5-methyl-imidazolidine-2,4-dione]
142% | −8.79 mV | 71% | −6.55 mV | O=C1NC2(CCCCC2)C(=O)N1c1ccnc(Oc2ccc3c(c2)OC(F)(F)O3)c1F [Example 93, 3-[2-[(2,2-difluoro-1,3-benzodioxol-5-yl)oxy]-3-fluoro-4-pyridyl]-1,3-diazaspiro[4.5]decane-2,4-dione]
90% | −5.21 mV | 63% | −3.6 mV | O=C1NC2(CCC2)C(=O)N1c1ccnc(Oc2ccc3c(c2)OC(F)(F)O3)c1 [Example 37, 7-[2-[(2,2-difluoro-1,3-benzodioxol-5-yl)oxy]-4-pyridyl]-5,7-diazaspiro[3.4]octane-6,8-dione]
41% | −3.4 mV | 55% | −3.73 mV | O=C1NC2(CCCCC2)C(=O)N1c1ccnc(Oc2ccc3c(c2)OCO3)c1 [Example 35, 3-[2-(1,3-benzodioxol-5-yloxy)-4-pyridyl]-1,3-diazaspiro[4.5]decane-2,4-dione]
27% | −4.19 mV | 25% | −1.25 mV | COc1cc(Oc2cc(N3C(=O)NC4(CCC4)C3=O)ccn2)ccc1C [Example 34, 7-[2-(3-methoxy-4-methyl-phenoxy)-4-pyridyl]-5,7-diazaspiro[3.4]octane-6,8-dione]
27% | −3.9 mV | 48% | −4.48 mV | CC[C@@]1(C)NC(=O)N(c2ccnc(Oc3ccc4c(c3)CCC4)c2)C1=O [Example 13, (5R)-5-ethyl-3-(2-indan-5-yloxy-4-pyridyl)-5-methyl-imidazolidine-2,4-dione]
36% | −5.13 mV | 14% | −4.12 mV | COc1cc(Oc2cc(N3C(=O)NC(C)(C)C3=O)ccn2)ccc1C(F)(F)F [Example 4, 3-[2-[3-methoxy-4-(trifluoromethyl)phenoxy]-4-pyridyl]-5,5-dimethyl-imidazolidine-2,4-dione]
26% | −0.83 mV | -4% | 2.06 mV | COc1cc(Oc2cc(N3C(=O)NC4(CCN(C)CC4)C3=O)ccn2)ccc1C [Example 30, 3-[2-(3-methoxy-4-methyl-phenoxy)-4-pyridyl]-8-methyl-1,3,8-triazaspiro[4.5]decane-2,4-dione]
150% | −10.63 mV | 137% | −6.75 mV | COc1cc(Oc2nccc(N3C(=O)NC4(CCCCC4)C3=O)c2F)ccc1C [Example 91, 3-[3-fluoro-2-(3-methoxy-4-methyl-phenoxy)-4-pyridyl]-1,3-diazaspiro[4.5]decane-2,4-dione]
62% | −4.26 mV | 61% | −5.3 mV | CC[C@H]1NC(=O)N(c2cccc(Oc3ccc(C)c(OC)c3)n2)C1=O [Example 48, (5R)-5-ethyl-3-[6-(3-methoxy-4-methyl-phenoxy)-2-pyridyl]imidazolidine-2,4-dione]
72% | −5.46 mV | 21% | −2.67 mV | CC[C@@]1(C)NC(=O)N(c2ccnc(Oc3ccc(C)c(OC)c3)c2)C1=O [Example 10, (5R)-5-ethyl-3-[2-(3-methoxy-4-methyl-phenoxy)-4-pyridyl]-5-methyl-imidazolidine-2,4-dione]
